The target of data set [1] is T1, 5-HT1A receptor (Homo sapiens, UniProt P08908).
T1 construct: TANGO fusion module (own knowledge, Kroeze et al.: C-terminal V2 tail, TEV site and tTA); 1000000068; host or cells: HTLA (HEK293-derived)
T1 sequence (P08908 1-422): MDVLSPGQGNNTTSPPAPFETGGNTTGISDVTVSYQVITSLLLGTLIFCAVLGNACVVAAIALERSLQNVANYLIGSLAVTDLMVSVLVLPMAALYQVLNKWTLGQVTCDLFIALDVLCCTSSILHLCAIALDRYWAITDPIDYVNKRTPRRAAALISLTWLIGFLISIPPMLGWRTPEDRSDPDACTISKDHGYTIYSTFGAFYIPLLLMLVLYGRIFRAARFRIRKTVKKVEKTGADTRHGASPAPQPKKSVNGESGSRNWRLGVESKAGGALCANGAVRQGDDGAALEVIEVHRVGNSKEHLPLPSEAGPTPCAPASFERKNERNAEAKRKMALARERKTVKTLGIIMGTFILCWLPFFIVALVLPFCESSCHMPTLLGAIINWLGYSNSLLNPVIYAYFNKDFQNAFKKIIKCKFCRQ
The data set is described as follows: PRESTO-TANGO β-arrestin recruitment. Format: cell-based. The note with it: panel screen.
Method: Assessment of receptor activation by compounds at all human aminergic receptors were carried out using a modified version of the PRESTO-TANGO method. […] The plate was spun down, and 5 μl of a 1:25 dilution (in DPBS) of polyethylenimine (PEI) derivative (Transporter 5, Polysciences) was added (1:4 cDNA to PEI ratio) and incubated for 20 min at room temperature (RT). […] Luminescence signal was detected using a plate-reader (SPARK, Tecan) with 100-ms integration time and a 100-ms delay between well reads.

A short description of data set [2]: Plasma protein binding (rapid equilibrium dialysis). It counts as in vitro ADME. The note with it: pH 7.4. As for the experimental part:
Pooled human plasma was provided by Uppsala Academic Hospital and was collected from two donors (nonsmoking) (citric acid). In brief, 0.2 ml of the plasma (50% plasma and 50% isotonic buffer) test solution (typically, 10 μM final compound concentration) was transferred to the membrane tube in the rapid equilibrium dialysis (RED) insert (Thermo Fisher Scientific). Isotonic phosphate buffer (0.35 ml; pH 7.4) was added to the other side of the membrane. The 96-well base plate was then sealed with an adhesive plastic film (Scotch Pad) to prevent evaporation. The sample was incubated with rapid rotation (>900 rpm) on a Kisker rotational incubator at 37°C for 4 hours to achieve equilibrium. A stability test of the test solution was prepared (to allow detection of drug degradation), and 100 μl of the plasma test solution (in a plastic vial or on a sealed plate) was incubated at 37°C for 4 hours (or as long as the dialysis time). The plasma test solution was frozen directly after the administration to prevent any degradation. Before LC-MS/MS analysis, the plasma and buffer samples were treated with the addition of methanol (1:3) containing Warfarin as internal standard to precipitate proteins. The standard curve was created using the plasma standard. The plate was then sealed and centrifuged, and the supernatant was analyzed by LC-MS/MS ([78]).

Data set [3] in a line: In vivo pharmacokinetics, plasma and brain. On the set-up: species or system mice. The procedure:
Brains were collected and snap-frozen. Blood was sampled from the cervical vein upon decapitation in Eppendorf tubes containing 50 μl of 0.5 M EDTA and immediately centrifuged for 10 min at 3000g and 4°C. Isolated plasma was then transferred into clean polypropylene tubes. All samples were stored at −20°C before analysis.
Brains were weighed and homogenized 1:3 (w/v) in PBS using a Minilys Bead Homogenizer (Bertin Instruments). […] Samples were precipitated with acetonitrile (1:4) containing warfarin as analytical internal standard. The supernatants were injected into the LC-MS/MS system consisting of a TQ-S micro mass spectrometer coupled to an Acquity UPLC (Waters Corp, MA, USA). […] The obtained concentrations of brain homogenate samples were multiplied by 4 to account for the dilution during preparation of the homogenate. Pharmacokinetic parameters were determined from the experimental data by applying non-compartmental analysis using Microsoft Excel spreadsheet. The brain-to-plasma partition coefficient (Kp,brain) was calculated as the ratio of the area under the concentration–time curves (AUC) in brain versus plasma (AUCbrain/AUCplasma).

The test system of data set [4] is WT and TAAR1-KO mice. In words: Pre-pulse inhibition (PPI) behavioral assay. It counts as in vivo. Particulars: compound 65 1 mg/kg, risperidone 0.2 mg/kg i.p. As for the experimental part:
Measurements were performed using startle response chambers (San Diego Instruments, San Diego, CA, USA). Each chamber is sound-isolated and contains a Plexiglass animal enclosure attached to a platform and a loudspeaker that can produce both continuous white noise and acoustic pulses of varying intensities. The animal enclosure is large enough for the animal to turn around and make other movements to reduce restraint stress. Mouse startle responses to acoustic stimuli are transformed by a piezoelectric transducer under the platform into an analog signal. The transducers were calibrated before each experiment using a standardization unit (San Diego Instruments, San Diego, CA, USA), and the speakers were calibrated using a Type 2670 Microphone Preamplifier, a Type 4230 Sound Level Calibrator, and a Type 2610 Measuring Amplifier (Brüel & Kjær, Nærum, Denmark). To habituate the mice to the chambers, they were placed in the enclosure for 5 min, with 65-dB background white noise, on three different days before the start of experiments. PPI measurements were then conducted on each mouse on four occasions separated by 96 hours. The first occasion was a mock test session where all mice were injected with vehicle, serving to reduce the effect of novelty on subsequent sessions. The next three sessions were true test sessions with injection of either compound 65, risperidone, or vehicle. The R package agricolae was used to generate a randomized block design, randomizing treatment order across sex, genotype, and test session.
Animals were brought to the testing room for habituation 60 min before the starting of tests. Thirty minutes before PPI measurements, mice were injected with either compound 65 (1 mg/kg), risperidone (0.2 mg/kg), or vehicle intraperitoneally. Each test session started with a 5-min background noise (65-dB white noise) habituation period. The background noise continued throughout the test session. The habituation period was followed by four blocks of trials, with the first and last blocks consisting of five pulse-only trials (40-ms, 120-dB pulse). During block 2, five trial types were presented five times each in a pseudo-randomized order. The trial types included pulse only, no stimulus (NOSTIM), and three different pre-pulse trials in which 20 ms pre-pulses of different intensities (68, 71, or 77 dB) preceded the startle pulse (120 dB) by a 100-ms interval. Block 3 contained the same numbers and types of trials as block 2, but in a different pseudorandom order. […] PPI data are shown as PPI%, which was calculated as [1 − (pre-pulse trials/startle-only trials)] × 100. Mean PPI was calculated by adding the average PPI% for all pre-pulse intensities (3, 6, and 12 dB) and dividing it by the number (i.e., 3) of pre-pulse intensities.

Data set [5] can be described thus: Metabolic stability in liver microsomes. Particulars: human liver microsomes, 1 μM. On the technique in general: Microsomes from liver hold many membrane-bound enzymes, among them those of drug oxidation.

Each structure is given as a SMILES string.

One may read the fraction unbound as free concentration divided by total concentration. The term Kp denotes tissue or fluid exposure divided by exposure in the circulation. One may read the half-life as the time in which the quantity being followed falls by half. In the case of `CC1=C(c2ccco2)CNCC1` [Compound 65], the “activation of 5-HT1A receptor” value in data set [1] is “did not observe a considerable activation”. The compound further displayed a fraction unbound at 4 h, 10 μM in data set [2] (human, pooled human plasma (50% plasma and 50% isotonic buffer)) of 0.61. The fraction unbound at 4 h, 10 μM in data set [2] (mouse, mouse plasma (50% plasma and 50% isotonic buffer)) stood at 0.81. The Clearance in data set [3] (after intraperitoneal administration, 1 mg/kg, mice, estimated) is reported as 225 ml/min per kg. The “brain concentration by 4 hours” value in data set [3] (below lower limit of quantification, mice, i.p. 1 mg/kg) is given as less than 40 pmol/g. In data set [3] (male, C57BL/6, mouse, brain and plasma, intraperitoneal, 1 mg/kg, total concentrations, AUCbrain/AUCplasma, read-out: brain-to-plasma partition coefficient Kp,brain), the Kp was 7.9. In data set [3] (male, C57BL/6, mouse, ip, plasma, mice, intraperitoneal 1 mg/kg), this compound returned a half-life of 17 min. The compound also came in with a concentration at 4 h in data set [3] (male, C57BL/6, mouse, plasma, ip, below lower limit of quantification, mice, i.p. 1 mg/kg) of less than 5 nM. The Cmax in data set [3] (male, C57BL/6, mouse, plasma, ip, mice, intraperitoneal 1 mg/kg, read-out: maximum plasma concentration (Cmax)) amounted to 850 ± 172 nM. The Tmax in data set [3] (male, C57BL/6, mouse, plasma, ip, mice, intraperitoneal 1 mg/kg, read-out: time to maximum plasma concentration) is not above 5 min. Besides, in data set [3] (mice, intraperitoneal 1 mg/kg), the “maximum concentration in brain” value was found to be 4707 ± 766 pmol/g, the “time to maximum brain concentration” value is recorded as not above 5 min and the “volume of distribution (V)” value was 6.3 L/kg. Further, the “effect on PPI” value in data set [4] (TAAR1-KO mice) is recorded as “did not observe any change in PPI”. Moreover, the “effect on PPI” value in data set [4] (WT mice) was “elevated PPI at both 3- and 6-dB pre-pulse levels”. Further, in data set [5], the “intrinsic clearance CLint” value is listed as 16 μl/min per mg.

(Values after PMC11305387, “AlphaFold accelerated discovery of psychotropic agonists targeting the trace amine–associated receptor 1” (Science Advances, 2024).)
